Data on two compounds can be found in patent US10676501B2, “Hydrogel materials incorporating eluting ceragenin compound” (BRIGHAM YOUNG UNIVERSITY, priority 2011, dated 2020).

In brackets after ≈: the same amount, converted by molar mass.

Series [1] can be described thus: Elution of CSA-138 from contact lenses without bacteria, quantified by scintillation counting. Type of series: physicochemical. As to the method: To decrease the detection limit for CSA-138, we prepared a radiolabeled version of CSA-138 (CSA-138T2), incorporated it into contact lenses, and quantified its elution from lenses using scintillation counting.
Lenses containing 1% CSA-138 were stored in 0.5 mL phosphate buffered saline (PBS) prior to testing. One set of lenses was autoclaved for 45 min before elution studies were performed. For elution studies, lenses were suspended in 2 ml aliquots of PBS, 10% TSB growth medium, 10% TSB growth medium containing 10^6 CFU of Staphylococcus aureus, or 10% TSB growth medium containing 10^6 CFU of Pseudomonas aeruginosa. Corresponding aliquots were exchanged every 24 h, including bacterial inocula. Samples were removed every 24 h and analyzed for the presence of CSA-138 using scintillation counting. A standard curve was generated to correlate counts per minute to concentration of CSA-138. All experiments were performed in triplicate.

Series [2] relates to P. aeruginosa. Put plainly: MIC against P. aeruginosa. The series is classed as cell-based.
Series [3] is described as follows: Elution of CSA-138 from contact lens hydrogel, quantified by LC/MS. Type of series: physicochemical. The settings on record: lenses with CSA-138 incorporated at 1%; LC/MS detection limit about 2 μg/ml. On the procedure:
To better understand the mechanism by which ceragenin compounds can be eluted from a hydrogel to prevent bacterial colonization, we determined the rate at which CSA-138 elutes from a hydrogel suitable for use in contact lenses. To quantify the amount of ceragenin eluting from the hydrogel, we used LC/MS using a mass-labeled internal standard. However, this method only gave detection limits of about 2 μg/ml, and we were able to effectively kill bacteria at constant elution rates below the detection limit.

Series [4] has as its system P. aeruginosa. The settings on record: elution from lenses, inocula 10^6 CFU; cited from earlier work.
Series [5] has as its system S. aureus. The experiment in a line: MIC against S. aureus. Type of series: cell-based.
Series [6] deals with S. aureus. The settings on record: elution from lenses, inocula 10^6 CFU, consecutive days; cited from earlier work.

For the compound `CCCCCCCCNCCC[C@@H](C)[C@H]1CC[C@H]2[C@@H]3[C@H](OCCCN)C[C@@H]4C[C@H](OCCCN)CC[C@]4(C)[C@H]3C[C@H](OCCCN)[C@]12C` [CSA-13], the “elution profile in 10% TSB in PBS” value in series [1] (10% TSB in PBS, compared with PBS (FIG. 5)) was “elution decreased”.

As for `CCCCCCCCCCCCCNCCC[C@@H](C)[C@H]1CC[C@H]2[C@@H]3[C@H](OCCCN)C[C@@H]4C[C@H](OCCCN)CC[C@]4(C)[C@H]3C[C@H](OCCCN)[C@]12C` [CSA-138], the MIC (in general, the lowest concentration that inhibits growth of the organism) with P. aeruginosa [2] was 1.0 µg/mL (≈ 1.34 µM); in the series with S. aureus [5], 0.5 µg/mL (≈ 0.669 µM). Further, in series [1] (lenses autoclaved 45 min before the study, compared with non-autoclaved (FIG. 4)), the “initial amount of material that eluted” value is “decreased somewhat”. Besides, the “elution on the first day” value in series [1] (lenses containing 1% CSA-138 in 2 ml PBS, day 1 (FIG. 3)) is “about 2.2 μg/ml”. Moreover, the “time until elution fell below detection limits” value in series [3] is “five”. Further, the results for the “duration for which colonization is prevented” value in the series with P. aeruginosa [4] and in the series on S. aureus [6] were 19 days and 30 days, respectively.
